Thermal shift data for one compound are collected here from paper PMC11676196, “Inhibition of TFAM-Mediated Mitophagy by Oroxylin A Restored Sorafenib Sensitivity Under Hypoxia Conditions in HepG2 Cells” (Pharmaceuticals, 2024).

The target of the assay is T1, TFAM (mitochondrial transcription factor A) (Homo sapiens, UniProt Q00059).
T1 construct: endogenous protein in intact human HepG2 cells
T1 sequence (Q00059 43-246): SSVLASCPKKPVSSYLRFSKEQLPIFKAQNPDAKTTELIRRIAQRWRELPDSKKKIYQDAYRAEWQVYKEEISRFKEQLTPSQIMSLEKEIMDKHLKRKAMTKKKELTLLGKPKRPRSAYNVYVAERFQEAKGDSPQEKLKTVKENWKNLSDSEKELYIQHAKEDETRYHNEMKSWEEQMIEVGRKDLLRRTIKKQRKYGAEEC
Briefly: cellular thermal shift assay (CETSA), Western blot. The format is cell-based. The settings on record: intact cells incubated 2 h with or without OA, heated 3 min at 43 to 70 °C; rightward shift of melting curve.

In the case of `COc1c(O)cc2oc(-c3ccccc3)cc(=O)c2c1O` [Oroxylin A], the thermal shift entry is recorded as “thermal shift assays showed a significant rightward shift in the thermal melting curve upon OA administration”.
